Assay results reported in patent US20140073634A1 (Institute For Applied Cancer Science/The University of …, priority 2012, published 2014).

System: 293T-HRE-GFP-luc cells
Test: Cell-based reporter assay for IC50 determinations (HRE-luciferase, hypoxia)
Conditions: 6 hrs hypoxia (1% O2), luminescence
In short: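 293T-HRE-GFP-luc cells were pre-incubated with serially diluted compounds for 30 min under normoxia, then held 6 hrs in hypoxia (1% O2, 37° C). HRE-driven luciferase read by Steadylite Plus luminescence; IC50 from four-parameter logistic fit.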

SMILES: CN1CCN(c2cccc(Cn3cc(-c4nc(-c5ccc(C(F)(F)F)cc5)no4)ccc3=O)c2)CC1 [Example 63, 1-(3-(4-Methylpiperazin-1-yl)benzyl)-5-(3-(4-(trifluoromethyl)phenyl)-1,2,4-oxadiazol-5-yl)pyridin-2(1H)-one]
- IC50 (6 h): < 100 nM

SMILES: COCCOc1cccc(Cn2cc(-c3noc(-c4ccc(C(F)(F)F)cc4)n3)ccc2=O)c1 [Example 65, 1-(3-(2-Methoxyethoxy)benzyl)-5-(5-(4-(trifluoromethyl)phenyl)-1,2,4-oxadiazol-3-yl)pyridin-2(1H)-one]
- IC50: 100 to 1000 nM

SMILES: COCCOc1cccc(Cn2cc(-c3noc(-c4ccc(N5CCCS5(=O)=O)cc4)n3)ccc2=O)c1 [Example 66, 5-(5-(4-(1,1-Dioxidoisothiazolidin-2-yl)phenyl)-1,2,4-oxadiazol-3-yl)-1-(3-(2-methoxyethoxy)benzyl)pyridin-2(1H)-one]
- IC50 (6 h): 100 to 1000 nM

SMILES: COCCOc1cccc(Cn2cc(-c3noc(-c4ccc(C5CC5)cc4)n3)ccc2=O)c1 [Example 67, 5-(5-(4-Cyclopropylphenyl)-1,2,4-oxadiazol-3-yl)-1-(3-(2-methoxyethoxy)benzyl)pyridin-2(1H)-one]
- IC50 (6 h): < 100 nM

SMILES: COCCOc1cccc(Cn2cc(-c3noc(-c4ccc(C(C)(C)C#N)cc4)n3)ccc2=O)c1 [Example 68, 2-(4-(3-(1-(3-(2-Methoxyethoxy)benzyl)-6-oxo-1,6-dihydropyridin-3-yl)-1,2,4-oxadiazol-5-yl)phenyl)-2-methylpropanenitrile]
- IC50 (6 h): 100 to 1000 nM

SMILES: CS(=O)(=O)CCCOc1cccc(Cn2cc(-c3noc(-c4ccc(OC(F)(F)F)cc4)n3)ccc2=O)c1 [Example 69, 1-(3-(3-(Methylsulfonyl)propoxy)benzyl)-5-(5-(4-(trifluoromethoxy)phenyl)-1,2,4-oxadiazol-3-yl)pyridin-2(1H)-one]
- IC50 (6 h): < 100 nM

SMILES: COCCOc1cccc(Cn2cc(-c3noc(-c4ccc(C(C)(C)CO)cc4)n3)ccc2=O)c1 [Example 70, 5-(5-(4-(1-Hydroxy-2-methylpropan-2-yl)phenyl)-1,2,4-oxadiazol-3-yl)-1-(3-(2-methoxyethoxy)benzyl)pyridin-2(1H)-one]
- IC50 (6 h): < 100 nM

SMILES: COCCOc1cccc(Cn2cc(-c3noc(-c4ccc(C5(C(F)(F)F)CC5)cc4)n3)ccc2=O)c1 [Example 71, 1-(3-(2-Methoxyethoxy)benzyl)-5-(5-(4-(1-(trifluoromethyl)cyclopropyl)phenyl)-1,2,4-oxadiazol-3-yl)pyridin-2(1H)-one]
- IC50 (6 h): < 100 nM

SMILES: COCCOc1cccc(Cn2cc(-c3noc(-c4ccc(C(C)(C)COC)cc4)n3)ccc2=O)c1 [Example 72, 15-(5-(4-(1-Methoxy-2-methylpropan-2-yl)phenyl)-1,2,4-oxadiazol-3-yl)-1-(3-(2-methoxyethoxy)benzyl)pyridin-2(1H)-one]
- IC50 (6 h): < 100 nM

SMILES: COCCOc1cccc(Cn2cc(-c3noc(-c4ccc(C(C)(C)O)cc4)n3)ccc2=O)c1 [Example 73, 5-(5-(4-(2-Hydroxypropan-2-yl)phenyl)-1,2,4-oxadiazol-3-yl)-1-(3-(2-methoxyethoxy)benzyl)pyridin-2(1H)-one]
- IC50 (6 h): < 100 nM

SMILES: COCCOc1cccc(Cn2cc(-c3noc(-c4ccc(C5CCOCC5)cc4)n3)ccc2=O)c1 [Example 74, 1-(3-(2-Methoxyethoxy)benzyl)-5-(5-(4-(tetrahydro-2H-pyran-4-yl)phenyl)-1,2,4-oxadiazol-3-yl)pyridin-2(1H)-one]
- IC50 (6 h): < 100 nM

SMILES: COCCOc1cccc(Cn2cc(-c3noc(-c4ccc(C5CCSCC5)cc4)n3)ccc2=O)c1 [Example 75, 1-(3-(2-Methoxyethoxy)benzyl)-5-(5-(4-(tetrahydro-2H-thiopyran-4-yl)phenyl)-1,2,4-oxadiazol-3-yl)pyridin-2(1H)-one]
- IC50 (6 h): < 100 nM

SMILES: CC(C)Oc1ccc(-c2nc(-c3ccc(=O)n(Cc4cccc(C(C)(C)O)c4)c3)no2)cc1 [Example 76, 1-(3-(2-Hydroxypropan-2-yl)benzyl)-5-(5-(4-isopropoxyphenyl)-1,2,4-oxadiazol-3-yl)pyridin-2(1H)-one]
- IC50 (6 h): < 100 nM

SMILES: CS(=O)(=O)C1CCN(c2cccc(Cn3cc(-c4noc(-c5ccc(N6CCOCC6)cc5)n4)ccc3=O)c2)CC1 [Example 77, 1-(3-(4-(Methylsulfonyl)piperidin-1-yl)benzyl)-5-(5-(4-morpholinophenyl)-1,2,4-oxadiazol-3-yl)pyridin-2(1H)-one]
- IC50 (6 h): < 100 nM

SMILES: CC(C)Oc1ccc(-c2nc(-c3ccc(=O)n(Cc4cccc(N5CCC(S(C)(=O)=O)CC5)c4)c3)no2)cc1 [Example 78, 5-(5-(4-Isopropoxyphenyl)-1,2,4-oxadiazol-3-yl)-1-(3-(4-(methylsulfonyl)piperidin-1-yl)benzyl)pyridin-2(1H)-one]
- IC50 (6 h): < 100 nM

SMILES: COCCOc1cccc(Cn2cc(-c3nc(-c4ccc(C5(O)CCCCC5)cc4)no3)ccc2=O)c1 [Example 80, 5-(3-(4-(1-Hydroxycyclohexyl)phenyl)-1,2,4-oxadiazol-5-yl)-1-(3-(2-methoxyethoxy)benzyl)pyridin-2(1H)-one]
- IC50 (6 h): < 100 nM

SMILES: COCCOc1cccc(Cn2cc(-c3noc(-c4ccc(C(C)(C)OC)cc4)n3)ccc2=O)c1 [Example 81, 1-(3-(2-Methoxyethoxy)benzyl)-5-(5-(4-(2-methoxypropan-2-yl)phenyl)-1,2,4-oxadiazol-3-yl)pyridin-2(1H)-one]
- IC50 (6 h): < 100 nM

SMILES: CS(=O)(=O)C1CCN(c2cccc(Cn3nc(-c4nc(-c5ccc(OC(F)F)cc5)no4)ccc3=O)c2)CC1 [Example 82, 6-(3-(4-(Difluoromethoxy)phenyl)-1,2,4-oxadiazol-5-yl)-2-(3-(4-(methylsulfonyl)piperidin-1-yl)benzyl)pyridazin-3(2H)-one]
- IC50 (6 h): < 100 nM

SMILES: CS(=O)(=O)C1CCN(c2cccc(Cn3nc(-c4nc(-c5ccc(N6CCOCC6)cc5)no4)ccc3=O)c2)CC1 [Example 83, 2-(3-(4-(Methylsulfonyl)piperidin-1-yl)benzyl)-6-(3-(4-morpholinophenyl)-1,2,4-oxadiazol-5-yl)pyridazin-3(2H)-one]
- IC50 (6 h): < 100 nM

SMILES: COCCOc1cccc(Cn2cc(-c3noc(-c4ccc(C5CCCCC5)cc4)n3)ccc2=O)c1 [Example 84, 5-(5-(4-Cyclohexylphenyl)-1,2,4-oxadiazol-3-yl)-1-(3-(2-methoxyethoxy)benzyl)pyridin-2(1H)-one]
- IC50 (6 h): < 100 nM

SMILES: COCCOc1cccc(Cn2cc(-c3noc(-c4ccc(S(=O)(=O)CC#N)cc4)n3)ccc2=O)c1 [Example 85, 2-(4-(3-(1-(3-(2-Methoxyethoxy)benzyl)-6-oxo-1,6-dihydropyridin-3-yl)-1,2,4-oxadiazol-5-yl)phenylsulfonyl)acetonitrile]
- IC50 (6 h): 100 to 1000 nM

SMILES: COCCOc1cccc(Cn2cc(-c3noc(-c4cnc(SC)nc4)n3)ccc2=O)c1 [Example 86, 1-(3-(2-Methoxyethoxy)benzyl)-5-(5-(2-(methylthio)pyrimidin-5-yl)-1,2,4-oxadiazol-3-yl)pyridin-2(1H)-one]
- IC50 (6 h): < 100 nM

SMILES: COCCOc1cccc(Cn2cc(-c3noc(-c4cnc(OCC(C)C)nc4)n3)ccc2=O)c1 [Example 87, 5-(5-(2-Isobutoxypyrimidin-5-yl)-1,2,4-oxadiazol-3-yl)-1-(3-(2-methoxyethoxy)benzyl)pyridin-2(1H)-one]
- IC50 (6 h): < 100 nM

SMILES: COCCOc1cccc(Cn2cc(-c3noc(-c4cnc(N5CCCCC5)nc4)n3)ccc2=O)c1 [Example 88, 1-(3-(2-Methoxyethoxy)benzyl)-5-(5-(2-(piperidin-1-yl)pyrimidin-5-yl)-1,2,4-oxadiazol-3-yl)pyridin-2(1H)-one]
- IC50 (6 h): < 100 nM

SMILES: Cc1cnc(-c2nc(-c3ccc(C(C)(C)C)cc3)no2)nc1Cc1cccc(N2CCN(C)CC2)c1 [Example 89, 3-(4-(Tert-butyl)phenyl)-5-(5-methyl-4-(3-(4-methylpiperazin-1-yl)benzyl)pyrimidin-2-yl)-1,2,4-oxadiazole]
- IC50 (6 h): < 100 nM

SMILES: Cc1ncc(-c2nc(-c3ccc(OC(F)(F)F)cc3)no2)nc1Cc1cccc(N2CCN(C)CC2)c1 [Example 90, 5-(5-Methyl-6-(3-(4-methylpiperazin-1-yl)benzyl)pyrazin-2-yl)-3-(4-(trifluoromethoxy)phenyl)-1,2,4-oxadiazole]
- IC50 (6 h): < 100 nM

SMILES: CN1CCN(c2cccc(Cn3cc(-c4ncc(-c5ccc(OC(F)(F)F)cc5)o4)ccc3=O)c2)CC1 [Example 91, 1-(3-(4-Methylpiperazin-1-yl)benzyl)-5-(5-(4-(trifluoromethoxy)phenyl)oxazol-2-yl)pyridin-2(1H)-one]
- IC50: < 100 nM

SMILES: CN1CCN(c2cc(Cn3cc(-c4ncc(-c5ccc(OC(F)(F)F)cc5)o4)ccc3=O)ccn2)CC1 [Example 92, 1-((2-(4-Methylpiperazin-1-yl)pyridin-4-yl)methyl)-5-(5-(4-(trifluoromethoxy)phenyl)oxazol-2-yl)pyridin-2(1H)-one]
- IC50 (6 h): 100 to 1000 nM

SMILES: CN1CCN(c2cccc(Cn3cc(-c4nc(-c5ccc(OC(F)(F)F)cc5)co4)ccc3=O)c2)CC1 [Example 93, 1-(3-(4-Methylpiperazin-1-yl)benzyl)-5-(4-(4-(trifluoromethoxy)phenyl)oxazol-2-yl)pyridin-2(1H)-one]
- IC50: < 100 nM

SMILES: COCCOc1cccc(Cn2cc(-c3nc(-c4ccc(OC(F)(F)F)cc4)co3)ccc2=O)c1 [Example 94, 1-(3-(2-Methoxyethoxy)benzyl)-5-(4-(4-(trifluoromethoxy)phenyl)oxazol-2-yl)pyridin-2(1H)-one]
- IC50 (6 h): < 100 nM

SMILES: CS(=O)(=O)CCCOc1cccc(Cn2cc(-c3nc(-c4ccc(OC(F)(F)F)cc4)co3)ccc2=O)c1 [Example 95, 1-(3-(3-(Methylsulfonyl)propoxy)benzyl)-5-(4-(4-(trifluoromethoxy)phenyl)oxazol-2-yl)pyridin-2(1H)-one]
- IC50 (6 h): < 100 nM

SMILES: CN1CCN(c2cccc(Cn3cc(-c4cc(-c5ccc(OC(F)(F)F)cc5)on4)ccc3=O)c2)CC1 [Example 96a, 1-(3-(4-Methylpiperazin-1-yl)benzyl)-5-(5-(4-(trifluoromethoxy)phenyl)isoxazol-3-yl)pyridin-2(1H)-one]
- IC50 (6 h): < 100 nM

SMILES: CN1CCN(c2cccc(Cn3cc(-c4cc(-c5ccc(OC(F)(F)F)cc5)no4)ccc3=O)c2)CC1 [Example 96b, 1-(3-(4-methylpiperazin-1-yl)benzyl)-5-(3-(4-(trifluoromethoxy)phenyl)isoxazol-5-yl)pyridin-2(1H)-on]
- IC50 (6 h): < 100 nM
